Assay results published in patent publication US10752900B2, “Oligonucleotides for modulating gene expression and uses thereof” (BIOGENERA S.P.A., priority 2012, dated 2020).

Key:
MYCN gene = test: QT-PCR, MYCN mRNA in Kelly cells; assay type: cell-based, human; details: for mRNA inhibition (%): Table 1, PNA 1 μM, RNA extracted after 24 hours; for Kelly % mRNA: Table 6
Procedure: For the purpose of assessing the ability of the oligonucleotides of the present invention to modulate the expression of the target genes, their ability to reduce the quantity of messenger RNA was analyzed using the Real-Time PCR technique.
For this purpose, use was made of 24-well plates, which were seeded with 5.0×10^4 cells with 0.3 ml of OPTI-MEM (GIBCO BRL) medium, 4% FBS and 2 mM L-glutammine (experiments in triplicate) per well.
The cells were incubated for 24 hours at 37° C., in an atmosphere containing 5% CO2 to permit adherence to the base of the wells.
Each oligonucleotide analyzed, except for the PNA oligonucleotides, was incubated beforehand with 2 μl of Lipofectamine 2000 (Invitrogen), with 0.3 mL of serum-free OPTI-MEM (GIBCO BRL) medium.
For each well, the oligonucleotides were analyzed at the following final concentrations: • the antisense oligonucleotides siRNA and siRNA gapmer (i.e. the oligonucleotides containing one or more monomers of chemically modified nucleic acids at the 3′ or 5′ end, while in the central portion they have monomers of nucleic acids that have not been modified or have been modified at the level of the phosphodiester bond as a phosphorothioate bond) were used at 200 nM; • the antisense oligonucleotides containing phosphorothioate DNA monomers, the RNA antigene oligonucleotides (agRNA) and the oligonucleotides containing DNA monomers and LNA monomers were used at 10 μM; • the morpholino oligonucleotides were used at a concentration of 1 μM, and • the PNA oligonucleotides were administered at a concentration of 1 μM.
The cells were treated with the oligonucleotides, adding FBS up to 4% 6 hours after administration of the same. After 24 hours the total RNA was extracted from each well and purified using the RNeasy Mini Kit (QIAGEN).
Assays were performed on 8 cell lines obtained from 5 different human tumours which are correlated with MYCN expression, i.e.: • as a neuroblastoma model use was made of the cell lines Kelly, IMR-32 (where the MYCN gene is amplified and superexpressed) and SKNBE2c and LAN1 (where the MYCN gene is amplified and superexpressed and the p53 gene is mutated); • as a rabdomiosarcoma model use was made of the cell line RH30, where the MYCN gene is amplified and superexpressed; • as a Wilms' tumour model use was made of the cell line WiT49, where the MYCN gene is amplified and superexpressed; • as a retinoblastoma model use was made of the cell line Y79, where the MYCN gene is amplified and superexpressed; and • as a model of small cell lung cancer use was made of the cell line H69 where the MYCN gene is amplified and superexpressed.
As a control, use was made of the same cell lines as listed above treated with sterile water instead of oligonucleotides. Each RNA sample was quantified (in duplicate) using a NanoDrop ND-1000 spectrophotometer (NanoDrop Technologies). The first strand of cDNA was produced using the cDNA Synthesis Kit for RT-PCR (Roche). For the cDNA synthesis reaction a total of 1 μg of RNA was used. For the real-time PCR, 10 ng of cDNA in a final volume of 20 μl was used with SYBR Green Master Mix 2× (Applied Biosystems) (3 identical experiments were conducted in triplicate). Two housekeeping genes were used as positive controls: GAPDH and beta-actin (ACTB).
The conditions of the QT-PCR reaction were: 10 min at 95° C., 20 sec at 95° C., and 30 sec at 60° C., for 50 cycles.
As far as the PNA oligonucleotides are concerned, the results regarding their ability to inhibit the transcription of the MYCN gene and proliferation of Kelly cells are shown in Table 1.
The oligonucleotides were tested in vitro (at a concentration of 2.5 μM) to determine their ability to inhibit the transcription of the gene they are directed against by measuring the levels of the gene messenger in cellular models in which the gene of interest is overexpressed. The methods used are the ones described in example 1. […]

Kelly cells = test: Cellular proliferation assay (ATP-Lite), Kelly cells; assay type: cell-based, human; details: for Cell Prolif (%) 1 μM 72 h: PNA 1 μM; for Cell Prolif. (%) 5 μM 72 h: PNA 5 μM; for Cell Prolif. (%) 10 μM 72 h: PNA 10 μM; for Cell Prolif (%) 2,5 μM 72 h: PNA 2,5 μM; for Cell Prolif. (%): Table 1, treated vs untreated control cells; for Kelly % cell prol.: Table 6
Summary of the method: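 Kelly cells seeded at 5×10^3/well in OPTI-MEM with 4% FBS and 2 mM L-glutamine, in triplicate. PNA oligonucleotides at 1, 2.5, 5 or 10 μM. Viability by ATP-Lite luminescence at 48, 72, 96 and 168 h, as ratio to untreated controls.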

NIH-3T3 = test: Cellular proliferation, NIH-3T3 fibroblastoid-type cells; assay type: cell-based; details: Table 1; cells that do not express MYCN
Procedure: Cell viability was assessed by means of an ATP-Lite assay (Luminescence ATP Detection Assay System, PerkinElmer) and is reported as the ratio between the average signal of the treated wells compared to the average value of the wells of untreated control cells. The cells were processed following the instructions provided with the kit.
Moreover, the oligonucleotides having SEQ ID NO 1-23 were administered in lines of fibroblastoid-type cells (NIH-3T3 and Phoenix) and the results are shown in Table 1 (last two columns). […]

| Substance | mRNA inhibition (%) (MYCN gene) | Kelly % mRNA (MYCN gene) [%] | Cell Prolif (%) 1 μM 72 h (Kelly cells) [%] | Cell Prolif. (%) 5 μM 72 h (Kelly cells) [%] | Cell Prolif. (%) 10 μM 72 h (Kelly cells) [%] | Cell Prolif (%) 2,5 μM 72 h (Kelly cells) [%] | Cell Prolif. (%) (Kelly cells) | Kelly % cell prol. (Kelly cells) [%] | NIH-3T3 prolif. (%) (NIH-3T3) |
| --- | --- | --- | --- | --- | --- | --- | --- | --- | --- |
| SEQ ID NO: 3: PNA antigene oligonucleotide GATGCGGGGGGCTCCT directed against MYCN (PNA backbone, chemistry not fully specified) | 68 | 68 | 78 | 19 | 3 | 41 | 41 | 41 | 100 |
| SEQ ID NO: 12: PNA antigene oligonucleotide TGTCTGGACGCGCTGG directed against MYCN (all peptide nucleic acid (PNA)) | 47 | 50 | 84 | 40 | 16 | 60 | 69 | 65 | 100 |
| SEQ ID NO: 6: PNA antigene oligonucleotide TGGACGCGCTGGGTGG directed against MYCN (PNA backbone, chemistry not fully specified) | 60 | 60 | 82 | 35 | 13 | 59 | 54 | 54 | 100 |
| SEQ ID NO: 9: PNA antigene oligonucleotide CCCTGCAGTCGGCGGG directed against MYCN (all peptide nucleic acid (PNA)) | 51 | 51 | 86 | 42 | 20 | 64 | 64 | 60 | 100 |
| SEQ ID NO: 4: PNA antigene oligonucleotide GTCGGCGGGAGGTAAG directed against MYCN (PNA backbone, chemistry not fully specified) | 65 | 65 | 78 | 21 | 3 | 48 | 48 | 48 | 100 |
| SEQ ID NO: 11: PNA antigene oligonucleotide GGGAACTGTGTTGGAG directed against MYCN (PNA backbone, chemistry not fully specified) | 48 | 50 | – | – | – | – | 68 | 64 | 100 |
